{
  "source": "patent US12685725B2",
  "about": "“Pridopidine for the treatment of mitochondrial-associated diseases and disorders and endoplasmic reticulum (ER) stress” (PRILENIA NEUROTHERAPEUTICS LTD., priority 2019, dated 2026)",
  "key": {"[1]": {"system": "isolated YAC128 striatal mitochondria", "settings": "wild-type mice, 30 mg/kg/day oral gavage 45 days", "procedure": "In isolated mitochondria, H2O2 levels were measured using the Amplex Red-horseradish peroxidase method. […] The homogenate was then dispensed into a 96-multiwell plate and fluorescence was measured in a spectrofluorometer microplate reader by excitation at 570 nm and emission at 585 nm every 30 s, for 20 min. After 10 min of basal reading, mitochondria were challenged with antimycin A (2 μM). Results were analyzed as time-dependent changes in fluorescence.\n(§1) 1.5-month-old WT and hemizygous YAC128 mice (males and females in equal proportion) were divided into four groups. […] Mice were divided 4 animals per cage enriched in corn-husk nesting material and paper rolls, each cage representing one individual experiment, for a total of 9 animals per group. Pridopidine was dissolved in deionized sterile water. Animals were weighed every week and the volume of treatment adjusted accordingly. Mice were behaviorally tested in rotarod immediately before commencing treatment and on the day before finishing treatment. Tests were conducted blindly at a set time during the day. Mice were sacrificed 24 h after administration of the final pridopidine dose, and mitochondria isolated from the striatum.\nThe final homogenate was then centrifuged at 1,100×g for 2 min, at 4° C. […] Protein content of isolated mitochondria was quantified by Bio-Rad assay (Bio-Rad, catalog no. 5000006)."}, "[2]": {"system": "WT and YAC128 cortical and striatal neurons", "settings": "24 h", "procedure": "(§2) Mitochondrial membrane potential (Δψm) was assessed in cortical and striatal neurons using the positively changed fluorescent probe TMRM (tetramethylrhodamine methyl ester) (Thermo Fisher Sci., catalog no: T668) and in cortical/striatal co-cultures and lymphoblasts using an equivalent probe, TMRE (tetramethylrhodamine ethyl ester) (Abcam, catalog no. ab113852).\nUnder these conditions, retention of TMRM by mitochondria was studied to estimate changes in Δψm. […] TMRM release was calculated based in the differences in fluorescence before and after addition of oligomycin/FCCP."}, "[3]": {"system": "HD human lymphoblasts", "settings": "pridopidine 24 h prior to H2O2 6 h, p=0.0016", "procedure": "Cell viability was assessed on lymphoblasts using the MTS assay, a measure of mitochondrial function and cell survival. The assay was performed according to the manufacturer's instructions (Promega, catalog no. G1112). In the day of experiment, MTS reagent was added to the culture media (1:10) and incubated at 37° C. for 4 hours. Then, lymphoblasts were centrifuged at 145×g for 5 min and media was collected. The absorbance of the formazan dye produced by viable cells was quantified in the medium at OD=490 nm."}, "[4]": {"system": "WT and YAC128 striatal neurons", "settings": "1 μM, 24 h", "procedure": "To obtain pure cortical and striatal neurons, tissue was micro-dissected in HBSS supplemented with 0.3% fatty acid free BSA (Sigma-Aldrich, catalog no: A8806). Tissue from embryos with the same genotype were pooled and digested with 0.003% trypsin in HBSS, then mechanically digested. […] (Sigma-Aldrich, catalog no: T9128) was used to block the trypsin. […] Cultures were incubated at 37° C. with 5% CO2. After 3 days in vitro (DIV) half of the medium was replaced with fresh supplemented Neurobasal medium containing 5-fluoro-2′-deoxyuridine (5-FdU, 5 μM final concentration in the medium; Sigma-Aldrich, catalog no: F0503) to reduce dividing non-neuronal cells. At DIV 7 half of the medium was again replaced with fresh, and cells were used at DIV12.\nThe ultrathin sections were prepared using Leica Ultracut UCT (Leica, Vienna, Austria) and contrasted with uranyl acetate and lead citrate. […] All mitochondria of 6-7 different cells were snapped per condition and per independent experiment. Number of mitochondria-ER contacts sites (MERCS), MERCS length, ER and mitochondria profile areas, ER width and mitochondria aspect ratio (the ratio between the major and minor axes of mitochondria) were quantified. Number of MERCS per mitochondria was obtained by dividing number of MERCS per number of mitochondria profiles. Percentage of mitochondria surface covered by ER was measured by dividing the MERCS length by mitochondria perimeter and multiplying by 100. MERCS were considered when the distance between ER and mitochondria <40 nm."}, "[5]": {"system": "HD human lymphoblasts", "settings": "24 h pre-treatment", "procedure": "The lymphoblasts were passaged 1:3 every five to six days. For conducting experiments, the lymphoblasts were collected and centrifuged at 145×g for 5 min. The cell pellet was resuspended in fresh growth medium. Lymphoblasts between passage number 5 and 20 were used in each experiment.\nas §2\n(§3) TMRE assay: Primary neurons and lymphoblasts in suspension were cultured in 6-well plates."}, "[6]": {"system": "YAC128 mice", "settings": "30 mg/kg/day oral gavage 45 days, vs vehicle-treated HD mice, p=0.0270", "procedure": "as §1"}, "[7]": {"system": "Y128 neurons", "settings": "5 μM given 24 h before 0.1 mM H2O2 for 6 h, p=0.001", "procedure": "as §2, §3"}, "[8]": {"system": "mitochondrial complexes II, III and IV", "settings": "30 mg/kg/day oral gavage 45 days", "procedure": "as §1\nThe final homogenate was then centrifuged at 1,100×g for 2 min, at 4° C. […] The mitochondrial fraction was pelleted by centrifugation at 18,500×g for 10 min at 4° C. The pellet was then resuspended in 1 mL of mitochondria washing buffer (MWB: in mM, 250 sucrose, 5 HEPES-KOH, 0.1 EGTA, pH 7.2) and centrifuged at 10,000×g for 5 min at 4° C. Mitochondrial pellet was again resuspended in a small volume of ice-cold MWB, to create a concentrated mitochondria solution, and kept on ice for further analysis for a maximum of 2 hours. Protein content of isolated mitochondria was quantified by Bio-Rad assay (Bio-Rad, catalog no. 5000006).\nAfter centrifugation, the volume was adjusted to 450 μL and the Seahorse plate was equilibrated in a humidified C02-free incubator at 37° C. for 10-12 min."}, "[9]": {"system": "cortico-striatal co-cultures (YAC128)", "settings": "Y128, 1 μM, n=4", "protocol": "For cortico-striatal co-cultures, brains were removed and transferred to Hibernate E medium (Thermo Fisher Sci., catalog no: A1247601) for up to 24 h. […] The cortex and striatum were micro-dissected in ice-cold Hank's balanced salt solution (HBSS; Gibco), then diced and pooled per genotype. […] The dissociated tissues were centrifuged at 145×g for 5 min and the pellet was then triturated with a pipette five to six times. […] The cells were fed with ⅓ volume fresh medium every fifth day.\nThe stained cells were washed twice with PBS and fixed with ice-cold methanol for 15 min at room temperature. Mitochondria were visualized using the SP5 confocal microscope (Leica). 8 random areas were sampled. Circularity was determined using ImageJ with an internal plugin."}, "[10]": {"settings": "YAC128 striatal neurons, p<0.0001"}},
  "note": "Where two headings read alike, the source gives them in different places.",
  "data": [
    {"smiles": "CCCN1CCC(c2cccc(S(C)(=O)=O)c2)CC1", "note": "[Pridopidine, 4-[3-(methylsulfonyl)phenyl]-1-propyl-piperidine]", "values": [
      {"measurement": "mitochondrial H2O2 levels", "setting": "[1]", "result": "does not affect"},
      {"measurement": "mitochondrial membrane potential (MMP), TMRM release", "setting": "[2]; WT striatal neurons, 1 μM, p=0.0013", "result": "also increases MMP"},
      {"measurement": "mitochondrial membrane potential (MMP), TMRM release", "setting": "[2]; Y128 high mHTT, cortical neurons, 0.1 μM, p=0.015", "result": "significantly increases MMP"},
      {"measurement": "mitochondrial membrane potential (MMP), TMRM release", "setting": "[2]; Y128 high mHTT, cortical neurons, 1 μM, p=0.0201", "result": "significantly increases MMP"},
      {"measurement": "mitochondrial membrane potential (MMP), TMRM release", "setting": "[2]; Y128 high mHTT, striatal neurons, 0.1 μM, p=0.0407", "result": "significantly increases MMP"},
      {"measurement": "mitochondrial membrane potential (MMP), TMRM release", "setting": "[2]; Y128 high mHTT, striatal neurons, 1 μM, p=0.0017", "result": "significantly increases MMP"},
      {"measurement": "mitochondrial membrane potential (MMP), TMRM release", "setting": "[2]; Y128 low mHTT, cortical neurons, 0.1 μM, p=0.0008", "result": "significantly increases MMP"},
      {"measurement": "mitochondrial membrane potential (MMP), TMRM release", "setting": "[2]; Y128 low mHTT, cortical neurons, 1 μM, p=0.0303", "result": "significantly increases MMP"},
      {"measurement": "mitochondrial membrane potential (MMP), TMRM release", "setting": "[2]; Y128 low mHTT, striatal neurons, 0.1 μM, p=0.0274", "result": "significantly increases MMP"},
      {"measurement": "increase in cell viability", "setting": "[3]", "result": "approximately 50%"},
      {"measurement": "percent of mitochondrial surface in contact with ER", "setting": "[4]; WT neurons, p=0.0339", "result": "significantly increases the percent of mitochondrial surface in contact with ER"},
      {"measurement": "proportion of elongated mitochondria (aspect ratio)", "setting": "[4]; Y128 striatal neurons, p=0.0044", "result": "increases the proportion of elongated mitochondria in Y128 striatal neurons to WT levels"},
      {"measurement": "ER width", "setting": "[4]; YAC128 neurons, p<0.0001", "result": "restores the abnormal ER width"},
      {"measurement": "number of MERCS per mitochondria", "setting": "[4]; [10]", "result": "increasing the number of MERCS per mitochondria"},
      {"measurement": "percent of mitochondrial surface in contact with ER", "setting": "[4]; [10]", "result": "increasing the number of MERCS per mitochondria and the percent of mitochondrial surface in contact with ER"},
      {"measurement": "MMP (TMRE signal) after H2O2", "setting": "[5]; HD human lymphoblasts, 5 μM, then H2O2 6 h", "result": "significant rescue effect"},
      {"measurement": "restoration of membrane potential", "setting": "[5]; human lymphoblasts, 10 μM, then 0.1 mM H2O2 6 h, p=0.1389", "result": "less efficacious and shows less restoration of membrane potential"},
      {"measurement": "concentration of maximal effect on MMP (bell-shaped dose-response)", "setting": "[5]; human lymphoblasts, then 0.1 mM H2O2 6 h", "result": 5, "unit": "µM"},
      {"measurement": "motor performance, latency to fall in accelerated rotarod", "setting": "[6]", "result": "significant motor improvement"},
      {"measurement": "H2O2-induced loss of MMP (TMRE)", "setting": "[7]", "result": "completely reverts this H2O2-induced loss of MMP"},
      {"measurement": "activity of mitochondrial complex IV (OCR)", "setting": "[8]; YAC128 mice", "result": "shows a similar decreasing trend"},
      {"measurement": "activity of mitochondrial complex III", "setting": "[8]; YAC128 mice, p=0.0084", "result": "normalizes the activity of mitochondrial complexes H and III"},
      {"measurement": "activity of mitochondrial complex II", "setting": "[8]; YAC128 mice, p=0.0306", "result": "normalizes the activity of mitochondrial complexes H and III"},
      {"measurement": "mitochondrial complex activities", "setting": "[8]; wild-type mice", "result": "does not affect mitochondrial complex activities"},
      {"measurement": "mitochondrial morphology (percentage of circular and elongated mitochondria)", "setting": "[9]", "result": "corrects Y128 morphology to WT levels"}
    ]}
  ]
}
